Source: PMC9592910, “Tissue distribution and integrated pharmacokinetic properties of major effective constituents of oral Gegen-Qinlian decoction in mice” (Frontiers in Pharmacology, 2022)
Marks after values point to notes of the source that are not given here.

How the values were obtained:
Type in all cases: in vivo, Kunming mice
[1] = Pharmacokinetics/tissue distribution of GQD constituents in the colons of mice after oral GQD; conditions: for half-life / Cmax / MRT / Tmax: both, Kunming, mouse
Method: (§1) The liver and the colon homogenates were prepared with 10 times (V: W) the volume of ascorbic acid solution (200 μg/ml). Then the homogenates were pretreated as plasma to obtain the tissue samples for LC-MS/MS analysis. Fifty-four Kunming mice were randomly divided into nine groups according to body weight and gender (3 male and three female in each group). […] Then the C-T curves of the constituents in the plasma and the tissue homogenates were respectively drawn and their pharmacokinetic parameters were respectively calculated. […] It should be noted that the pharmacokinetic parameters of a GQD constituent was calculated based on its average concentration in six mice at each time point. The results were expressed as mean ± SD.

[2] = Pharmacokinetics of GQD constituents in the portal vein of mice after oral GQD; conditions: both, Kunming, mouse; for AUC(0-t): read-out: AUC0–24 h
Method: (§2) Fifty-four Kunming mice were randomly divided into nine groups according to body weight and gender (3 male and three female in each group). Each group was orally administered with water solution (0.2 ml/10 g body weight) of the GQD extract powder at the dosage of 6.1 g/kg body weight. The dosage of GQD extract powder equals to 18 g/kg herbal pieces of GQD, which is equivalent to its clinical dosage. At each designed time point (0.08, 0.25, 0.5, 1, 2, 4, 8, 12, and 24 h) after oral administration, six mice were anesthetized with ether, and blood was collected from the portal vein (about 0.2 ml, aspirated in a 1 ml heparinized syringe) and then the systemic circulation (about 0.2 ml, collected in heparinized tubes after removal of the eyeball) of the mice to prepare plasma samples, and the livers and the colons were removed to prepare respective homogenate. After pretreatment, the concentrations of 19 major constituents of GQD in each sample were measured by the validated LC-MS/MS method (see “2.3”). Then the C-T curves of the constituents in the plasma and the tissue homogenates were respectively drawn and their pharmacokinetic parameters were respectively calculated.
(§3) It should be noted that the pharmacokinetic parameters of a GQD constituent was calculated based on its average concentration in six mice at each time point. The results were expressed as mean ± SD.

[3] = Pharmacokinetics of GQD constituents in the systemic circulation of mice after oral GQD; conditions: for half-life / Tmax / Cmax / MRT / AUC(0-t): both, Kunming, mouse; for AUC(0-t): read-out: AUC0–24 h
Method: as §2, §3

[4] = Pharmacokinetics/tissue distribution of GQD constituents in the livers of mice after oral GQD; conditions: for Kp: both sexes
Method: as §1

[5] = colon (homogenate), po, […], colon, mice, oral GQD extract […], read-out: T1/2 (converted)
[6] = colon (homogenate), colon, mice, oral GQD extract 6.1 g/kg
[7] = colon (homogenate), colon, mice, oral GQD extract 6.1 g/kg, read-out: Tmax
[8] = colon, mice, oral GQD extract […]
[9] = portal vein plasma, po, […], portal vein plasma, mice, oral GQD extract […], read-out: Tmax
[10] = portal vein plasma, mice, oral GQD extract 6.1 g/kg
[11] = portal vein plasma, mice, oral GQD extract 6.1 g/kg, read-out: T1/2 (converted)
[12] = systemic circulation plasma, po, […], systemic circulation plasma, mice, oral GQD […], read-out: T1/2 (converted)
[13] = systemic circulation plasma, po, […], systemic circulation plasma, mice, oral GQD […], read-out: Tmax
[14] = systemic circulation plasma, mice, oral GQD 6.1 g/kg
[15] = both, Kunming, mouse, liver (homogenate), po, […], liver, mice, oral GQD extract […], read-out: T1/2 (converted)
[16] = both, Kunming, mouse, liver (homogenate), liver, mice, oral GQD extract 6.1 g/kg
[17] = both, Kunming, mouse, liver (homogenate), liver, mice, oral GQD extract 6.1 g/kg, read-out: Tmax
[18] = liver, mice, oral GQD extract […]
[19] = in vivo, colon, mice, oral GQD extract 6.1 g/kg
[20] = in vivo, portal vein plasma, mice, oral GQD extract 6.1 g/kg
[21] = in vivo, systemic circulation plasma, mice, oral GQD 6.1 g/kg
[22] = both, Kunming, mouse, in vivo, liver, mice, oral GQD extract 6.1 g/kg
[23] = both, Kunming, mouse, in vivo, po, […]
[24] = both, Kunming, mouse, in vivo, po, […], T1/2
[25] = Kunming, mouse, in vivo, po, AUC0–24 h liv/AUC0–24 h por

| SMILES | half-life [1, 5] [min] | Cmax [1, 6] [ng/g] | MRT [1, 6] [h] | Tmax [1, 7] [h] | T1/2 [1, 8] | Tmax [2, 9] [h] | Cmax [2, 10] [ng/mL] | MRT [2, 10] [h] | AUC(0-t) [2, 10] [ng·h/mL] | half-life [2, 11] [min] | half-life [3, 12] [min] | Tmax [3, 13] [min] | Cmax [3, 14] [ng/mL] | MRT [3, 14] [h] | AUC(0-t) [3, 14] [ng·h/mL] | half-life [4, 15] [min] | Cmax [4, 16] [ng/g] | MRT [4, 16] [h] | Tmax [4, 17] [h] | T1/2 [4, 18] | further results |
| --- | --- | --- | --- | --- | --- | --- | --- | --- | --- | --- | --- | --- | --- | --- | --- | --- | --- | --- | --- | --- | --- |
| O=c1cc(-c2ccccc2)oc2cc(O)c(O)c(O)c12 [Baicalein, baicalein] | 120 to 180 | 1920 | 5.8 | 4 | 2.6 h | 2 | 381 | 3.8 | 1760 | 78 | 378 | 240 | 26.7 | 6.8 | 229 | 120 to 180 | 9020 | 4.3 | 4 | 2.3 h |  |
| O=c1c(-c2ccc(O)cc2)coc2cc(O[C@@H]3O[C@H](CO)[C@@H](O)[C@H](O)[C@H]3O)ccc12 [Daidzin, daidzin] |  |  |  |  |  |  |  |  |  |  |  |  |  |  |  |  |  |  |  |  | Cmax [1, 19]: 114 ng/g; MRT [1, 19]: 9.9 h; half-life ([1]; in vivo, colon, mice, oral GQD extract 6.1 g/kg, read-out: T1/2 (converted)): 660 min; Tmax ([1]; in vivo, colon, mice, oral GQD extract 6.1 g/kg, read-out: Tmax): 1 h; Cmax [2, 20]: 76.9 ng/mL; MRT [2, 20]: 2 h; AUC(0-t) [2, 20]: 151 ng·h/mL; half-life ([2]; in vivo, portal vein plasma, mice, oral GQD extract 6.1 g/kg, read-out: T1/2 (converted)): 108 min; Tmax ([2]; in vivo, portal vein plasma, mice, oral GQD extract 6.1 g/kg, read-out: Tmax): 0.25 h; Cmax [3, 21]: 49 ng/mL; MRT [3, 21]: 1.8 h; AUC(0-t) [3, 21]: 85.7 ng·h/mL; half-life ([3]; in vivo, systemic circulation plasma, mice, oral GQD 6.1 g/kg, read-out: T1/2 (converted)): 108 min; Tmax ([3]; in vivo, systemic circulation plasma, mice, oral GQD 6.1 g/kg, read-out: Tmax): 15 min; Cmax [4, 22]: 54.1 ng/g; MRT [4, 22]: 3.6 h; half-life ([4]; both, Kunming, mouse, in vivo, liver, mice, oral GQD extract 6.1 g/kg, read-out: T1/2 (converted)): 204 min; Tmax ([4]; both, Kunming, mouse, in vivo, liver, mice, oral GQD extract 6.1 g/kg, read-out: Tmax): 0.5 h |
| O=C(O)[C@H]1O[C@@H](Oc2cc3oc(-c4ccccc4)cc(=O)c3c(O)c2O)[C@H](O)[C@@H](O)[C@@H]1O [Baicalin, baicalin] | 900 to 1140 | 3460 | 9.9 | 1 | 18.6# h | 4 | 8150 | 4.5 | 46300 | 120 | 186 | 240 | 1450 | 5.1 | 8670 | 60 to 120 | 5710 | 3.7 | 2 | 1.7 h |  |
| COc1ccc2c(c1O)-c1c(O)c(OC)cc3c1[C@H](C2)[N+](C)(C)CC3 [Magnoflorine, magnoflorine] | 126 | 2150 | 5 | 4 |  | 0.25 | 38.3 | 2.6 | 161 | 72 | 114 | 30 | 22.4 | 2.6 | 94.9 | 318 | 53.4 | 5.3 | 0.25 |  |  |
| O=c1c(-c2ccc(O)cc2)coc2cc(O)ccc12 [Daidzein, daidzein] |  |  |  |  |  |  |  |  |  |  |  |  |  |  |  |  |  |  |  |  | Tmax ([1]; in vivo, po, […]): 1 h; half-life ([2]; in vivo, po, […]): 156 min; Tmax ([2]; in vivo, po, […], Tmax): 0.25 to 0.5 h; half-life ([3]; in vivo, po, […], T1/2): 90 min; Tmax ([3]; in vivo, po, […], Tmax): 15 to 30 min; T1/2 [4, 23]: 3.6 h; Tmax [4, 23]: 0.25 h; half-life [4, 24]: 180 to 240 min |
| O=C1C[C@@H](c2ccc(O[C@@H]3O[C@H](CO)[C@@H](O)[C@H](O)[C@H]3O)cc2)Oc2cc(O)ccc21 [Liquiritin, liquiritin] |  |  |  |  |  |  |  |  |  |  |  |  |  |  |  |  |  |  |  |  | Tmax ([1]; in vivo, po, […]): 0.5 h; half-life ([1]; in vivo, po, […], T1/2): 1170 min; half-life ([2]; in vivo, po, […]): 150 min; Tmax ([2]; in vivo, po, […], Tmax): 0.25 h; half-life ([3]; in vivo, po, […], T1/2): 90 min; Tmax ([3]; in vivo, po, […], Tmax): 15 min; Kp ([4]; Kunming, mouse, in vivo, po, AUC0–24 h liv/AUC0–24 h cir): ~5; Kp [4, 25]: 2.4; AUC0–24 h liv/AUC0–24 h cir ([4]; both, Kunming, mouse, in vivo, po): 5.1; Tmax [4, 23]: 4 h; half-life [4, 24]: 1180 min |
| c1c2c(cc3c1OCO3)-c1cc3ccc4c(c3c[n+]1CC2)OCO4 [Coptisine, coptisine] |  |  |  |  |  |  |  |  |  |  |  |  |  |  |  |  |  |  |  |  | Tmax ([1]; in vivo, po, […]): 4 h; half-life ([1]; in vivo, po, […], T1/2): 258 min; half-life ([2]; in vivo, po, […]): 282 min; Tmax ([2]; in vivo, po, […], Tmax): 4 h; half-life ([3]; in vivo, po, […], T1/2): 648 min; Tmax ([3]; in vivo, po, […], Tmax): 15 min; Kp [4, 25]: 10.5; Tmax [4, 23]: 2 h; half-life [4, 24]: 222 min |
| CC1(C)[C@@H](O)CC[C@]2(C)[C@H]3C(=O)C=C4[C@@H]5C[C@@](C)(C(=O)O)CC[C@]5(C)CC[C@@]4(C)[C@]3(C)CC[C@@H]12 [Glycyrrhetinic acid, glycyrrhetinic acid] | 240 to 300 | 1830 | 7 | 4 | 4.4 h | 4 | 643 | 7 | 5330 | 282 | ~360 | 240 | 196 | 8.4 | 2120 | 360 to 420 | 910 | 8.6 | 4 | 6.6# h | T1/2 ([3]; systemic circulation plasma, mice, oral GQD […]): 6.2# h |
